Experiments:
Assay in all cases: relative viability (nuclei count vs DMSO), 5 days (fraction); higher = more cells survive
Axitinib + Pemetrexed = compound: CNC(=O)c1ccccc1Sc1ccc2c(/C=C/c3ccccn3)n[nH]c2c1 [Axitinib] + Nc1nc2[nH]cc(CCc3ccc(C(=O)N[C@@H](CCC(=O)O)C(=O)O)cc3)c2c(=O)[nH]1 [Pemetrexed] (partner 0.2 µM)
Method in brief: (§1)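 Values are medians from duplicate plates. Each reflects relative viability, defined as the nuclei count of treated wells over that of vehicle wells. Lung cancer cell lines in 1536-well plates were pin-tool dosed one day after seeding with one drug alone or with a fixed anchor-drug dose plus five library-drug doses (not always all listed) in √10 steps, then fixed, stained and imaged at 4× after 5 days.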

[1] = compound: CC1=CC=C(C=C1)C(=O)CN2C3=C(CCCC3)SC2=N [Pifithrin_alpha] + O=C(c1cc(Cc2n[nH]c(=O)c3ccccc23)ccc1F)N1CCN(C(=O)C2CC2)CC1 [Olaparib] (partner 8 µM)
Method in brief: as §1

Axitinib + Olaparib = compound: CNC(=O)c1ccccc1Sc1ccc2c(/C=C/c3ccccn3)n[nH]c2c1 [Axitinib] + O=C(c1cc(Cc2n[nH]c(=O)c3ccccc23)ccc1F)N1CCN(C(=O)C2CC2)CC1 [Olaparib] (partner 8 µM)
Method in brief: as §1

Axitinib + Phenformin = compound: CNC(=O)c1ccccc1Sc1ccc2c(/C=C/c3ccccn3)n[nH]c2c1 [Axitinib] + N=C(N)NC(=N)NCCc1ccccc1 [Phenformin] (partner 250 µM)
Method in brief: as §1

| Cell Line | relative viability (Axitinib + Pemetrexed; first compound 0.005 µM) | relative viability (Axitinib + Pemetrexed; first compound 0.01581 µM) | relative viability (Axitinib + Pemetrexed; first compound 0.05 µM) | relative viability (Axitinib + Pemetrexed; first compound 0.1581 µM) | relative viability (Axitinib + Pemetrexed; first compound 0.5 µM) | relative viability ([1]; first compound 1 µM) | relative viability ([1]; first compound 3.162 µM) | relative viability ([1]; first compound 10 µM) | relative viability ([1]; first compound 31.62 µM) | relative viability ([1]; first compound 100 µM) | relative viability (Axitinib + Olaparib; first compound 0.005 µM) | relative viability (Axitinib + Olaparib; first compound 0.01581 µM) | relative viability (Axitinib + Olaparib; first compound 0.05 µM) | relative viability (Axitinib + Olaparib; first compound 0.1581 µM) | relative viability (Axitinib + Olaparib; first compound 0.5 µM) | relative viability (Axitinib + Phenformin; first compound 0.005 µM) | relative viability (Axitinib + Phenformin; first compound 0.01581 µM) | relative viability (Axitinib + Phenformin; first compound 0.05 µM) | relative viability (Axitinib + Phenformin; first compound 0.1581 µM) | relative viability (Axitinib + Phenformin; first compound 0.5 µM) |
| --- | --- | --- | --- | --- | --- | --- | --- | --- | --- | --- | --- | --- | --- | --- | --- | --- | --- | --- | --- | --- |
| NCI-H358 | 0.166 | 0.154 | 0.182 | 0.173 | 0.181 | 0.628 | 0.559 | 0.459 | 0.252 | 0.555 | 0.741 | 0.567 | 0.6 | 0.594 | 0.682 | 0.344 | 0.32 | 0.332 | 0.309 | 0.388 |
| NCI-H2342 | 0.753 | 0.792 | 0.707 | 0.782 | 0.669 | 0.519 | 0.415 | 0.42 | 0.373 | 0.43 | 0.51 | 0.464 | 0.421 | 0.528 | 0.44 | 0.648 | 0.636 | 0.636 | 0.591 | 0.53 |
| A-427 | 1.11 | 1.1 | 1.01 | 0.954 | 1.14 | 0.676 | 0.623 | 0.574 | 0.339 | 0.493 | 0.778 | 0.843 | 0.803 | 0.753 | 1.01 | 0.356 | 0.29 | 0.416 | 0.323 | 0.289 |
| NCI-H2126 | 0.679 | 0.708 | 0.689 | 0.75 | 0.737 | 0.91 | 1.01 | 0.924 | 0.691 | 0.927 | 0.913 | 0.907 | 0.884 | 0.917 | 0.944 | 0.528 | 0.555 | 0.548 | 0.552 | 0.564 |
| NCI-H647 | 0.21 | 0.149 | 0.2 | 0.184 | 0.209 | 0.531 | 0.44 | 0.531 | 0.217 | 0.492 | 0.581 | 0.527 | 0.708 | 0.622 | 0.644 | 0.663 | 0.498 | 0.558 | 0.504 | 0.893 |
| ChaGo-K-1 | 0.27 | 0.262 | 0.252 | 0.267 | 0.274 | 0.404 | 0.424 | 0.336 | 0.231 | 0.371 | 0.473 | 0.445 | 0.412 | 0.441 | 0.438 | 0.467 | 0.428 | 0.506 | 0.437 | 0.469 |
| UMC-11 | 0.774 | 0.81 | 0.77 | 0.867 | 0.81 | 0.367 | 0.365 | 1.09 | 0.402 | 0.249 | 0.353 | 0.4 | 0.737 | 0.376 | 0.335 | 0.343 | 0.353 | 0.322 | 0.326 | 0.34 |
| LOU-NH91 | 0.392 | 0.402 | 0.406 | 0.421 | 0.395 | 0.821 | 0.908 | 0.864 | 0.523 | 0.795 | 0.942 | 0.745 | 0.951 | 0.893 | 0.934 | 0.763 | 0.523 | 0.875 | 0.684 | 0.695 |
| HCC-44 | 0.625 | 0.631 | 0.626 | 0.624 | 0.676 | 0.918 | 0.877 | 0.818 | 0.553 | 0.627 | 0.955 | 0.961 | 0.963 | 0.947 | 1 | 0.165 | 0.27 | 0.211 | 0.198 | 0.176 |
| HCC-15 | 0.211 | 0.228 | 0.23 | 0.22 | 0.211 | 0.733 | 0.867 | 0.697 | 0.368 | 0.581 | 0.77 | 0.75 | 0.766 | 0.682 | 0.667 | 0.469 | 0.458 | 0.51 | 0.472 | 0.464 |
| NCI-H1975 | 0.294 | 0.293 | 0.272 | 0.269 | 0.279 | 0.676 | 0.437 | 0.374 | 0.467 | 0.354 | 0.822 | 0.816 | 0.859 | 0.774 | 0.805 | 0.436 | 0.43 | 0.408 | 0.391 | 0.446 |
| NCI-H1651 | 0.567 | 0.586 | 0.587 | 0.618 | 0.657 | 0.184 | 0.191 | 0.173 | 0.143 | 0.194 | 0.194 | 0.19 | 0.198 | 0.175 | 0.206 | 0.295 | 0.295 | 0.347 | 0.304 | 0.353 |
| NCI-H1563 | 0.844 | 0.716 | 0.917 | 0.729 | 0.721 | – | – | – | – | – | – | – | – | – | – | 0.778 | 0.654 | 0.625 | 0.616 | 0.667 |
| NCI-H1703 | – | – | – | – | – | 0.418 | 0.328 | 0.382 | 0.313 | 0.326 | 0.392 | 0.225 | 0.243 | 0.216 | 0.201 | – | – | – | – | – |
| Calu-6 | – | – | – | – | – | 0.534 | 0.536 | 0.46 | – | 0.427 | 0.554 | 0.605 | 0.607 | 0.555 | 0.681 | – | – | – | – | – |
| NCI-H727 | – | – | – | – | – | 0.71 | 0.843 | 0.68 | 0.583 | 0.597 | 0.59 | 0.756 | 0.759 | 0.665 | 0.652 | 0.7 | 0.519 | 0.589 | 0.536 | 0.728 |
| EBC-1 | – | – | – | – | – | 0.621 | 0.552 | 0.348 | 0.298 | 0.363 | 0.788 | 0.648 | 0.768 | 0.69 | 0.769 | – | – | – | – | – |
| NCI-H1299 | – | – | – | – | – | 0.964 | 1 | 0.985 | 0.514 | 0.794 | 0.983 | 0.944 | 0.976 | 0.983 | 0.975 | – | – | – | – | – |
| NCI-H1623 | – | – | – | – | – | – | – | – | – | – | – | – | – | – | – | 0.669 | 0.585 | 0.315 | 0.613 | 0.6 |
| ABC-1 | – | – | – | – | – | – | 0.774 | 0.557 | 0.405 | 0.477 | 0.735 | – | 0.659 | 0.974 | 0.78 | 0.268 | 0.239 | 0.222 | 0.21 | 0.241 |
